The record followed here is US8853203B2, “Diazepinone derivatives” (Novartis AG, priority 2012, dated 2014).

The target of assay [1] is human mGluR1 (Homo sapiens (Human), UniProt Q13255). The assay is described as follows: mGluR1 antagonism, L-glutamate induced intracellular calcium increase (FLIPR) in CHO cells stably expressing human mGluR1. As to conditions: for IC50: L-glutamate induced intracellular calcium, CHO cells expressing human mGluR1, FLIPR. The class given is cell-based. The source says:
Activity of compounds of the present invention with respect to mGluR1 antagonism was examined by an assay based on measurements of L-glutamate induced intracellular calcium increases using a 96 well plate-based Fluorometric Imaging Plate Reader (FLIPR), and CHO cells stably expressing human mGluR1. L-glutamate induced robust calcium responses via human mGluR1 in a concentration-dependent manner and in the low micromolar range. The table below represents IC50 values of the inhibition of the glutamate-induced elevation of the intracellular calcium concentration.

Assay [2] deals with human mGluR5a receptors (Homo sapiens (Human), UniProt P41594). The assay is described as follows: inhibition of glutamate-induced elevation of intracellular calcium in L(tk-) cells expressing human mGluR5a. It is filed as cell-based. As to conditions: glutamate-induced intracellular calcium elevation, L(tk-) cells expressing human mGluR5a; read-out: mGluR5 IC50. The source says:
Activity of compounds of the present invention was examined by determination to what extent the glutamate-induced elevation of the intracellular calcium concentration in L(tk-) cells expressing human mGluR5a receptors (see L. P. Daggett et al., Neuropharm. Vol. 34, pages 871-886, 1995) is inhibited by utilizing methods as described e.g. by L. P. Daggett et al., Neuropharm. Vol. 34, pages 871-886 (1995) and P. J. Flor et al., J. Neurochem. Vol. 67, pages 58-63 (1996).
On the technique in general: Calcium assays in cells follow changes in intracellular calcium, usually with a dye or a luminescent sensor.

human mGluR1, sequence (Q13255 19-1194): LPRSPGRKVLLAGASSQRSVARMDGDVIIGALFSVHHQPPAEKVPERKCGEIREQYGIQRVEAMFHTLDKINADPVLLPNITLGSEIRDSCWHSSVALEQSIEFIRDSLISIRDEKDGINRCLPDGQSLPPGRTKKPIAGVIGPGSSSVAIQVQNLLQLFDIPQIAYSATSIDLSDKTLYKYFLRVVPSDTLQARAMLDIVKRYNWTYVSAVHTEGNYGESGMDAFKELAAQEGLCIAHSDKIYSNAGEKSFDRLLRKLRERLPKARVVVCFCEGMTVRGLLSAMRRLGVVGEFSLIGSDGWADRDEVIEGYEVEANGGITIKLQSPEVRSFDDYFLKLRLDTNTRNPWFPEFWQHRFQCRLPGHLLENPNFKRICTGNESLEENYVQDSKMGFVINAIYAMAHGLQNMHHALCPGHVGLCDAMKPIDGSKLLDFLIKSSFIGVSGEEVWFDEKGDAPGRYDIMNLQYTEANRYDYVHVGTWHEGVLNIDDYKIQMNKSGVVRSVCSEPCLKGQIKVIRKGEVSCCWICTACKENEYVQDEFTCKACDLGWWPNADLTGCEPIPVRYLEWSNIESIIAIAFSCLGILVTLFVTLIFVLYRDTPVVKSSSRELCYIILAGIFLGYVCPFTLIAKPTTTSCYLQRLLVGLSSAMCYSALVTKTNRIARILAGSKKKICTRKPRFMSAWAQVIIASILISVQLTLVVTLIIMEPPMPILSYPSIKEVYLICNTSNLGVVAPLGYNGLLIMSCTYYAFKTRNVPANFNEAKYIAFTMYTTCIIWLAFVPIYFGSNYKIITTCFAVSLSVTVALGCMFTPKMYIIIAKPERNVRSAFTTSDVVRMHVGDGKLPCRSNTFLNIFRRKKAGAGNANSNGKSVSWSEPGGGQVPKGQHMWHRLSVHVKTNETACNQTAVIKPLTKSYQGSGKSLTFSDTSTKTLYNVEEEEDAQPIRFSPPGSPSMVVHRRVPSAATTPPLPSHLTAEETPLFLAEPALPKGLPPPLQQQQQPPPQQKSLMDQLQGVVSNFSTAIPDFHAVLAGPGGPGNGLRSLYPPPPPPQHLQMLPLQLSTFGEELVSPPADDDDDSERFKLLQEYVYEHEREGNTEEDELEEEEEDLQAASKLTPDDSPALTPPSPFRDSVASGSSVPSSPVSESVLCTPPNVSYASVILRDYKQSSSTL
human mGluR5a receptors, sequence (P41594 other isoform, or with tags, fused parts or gaps): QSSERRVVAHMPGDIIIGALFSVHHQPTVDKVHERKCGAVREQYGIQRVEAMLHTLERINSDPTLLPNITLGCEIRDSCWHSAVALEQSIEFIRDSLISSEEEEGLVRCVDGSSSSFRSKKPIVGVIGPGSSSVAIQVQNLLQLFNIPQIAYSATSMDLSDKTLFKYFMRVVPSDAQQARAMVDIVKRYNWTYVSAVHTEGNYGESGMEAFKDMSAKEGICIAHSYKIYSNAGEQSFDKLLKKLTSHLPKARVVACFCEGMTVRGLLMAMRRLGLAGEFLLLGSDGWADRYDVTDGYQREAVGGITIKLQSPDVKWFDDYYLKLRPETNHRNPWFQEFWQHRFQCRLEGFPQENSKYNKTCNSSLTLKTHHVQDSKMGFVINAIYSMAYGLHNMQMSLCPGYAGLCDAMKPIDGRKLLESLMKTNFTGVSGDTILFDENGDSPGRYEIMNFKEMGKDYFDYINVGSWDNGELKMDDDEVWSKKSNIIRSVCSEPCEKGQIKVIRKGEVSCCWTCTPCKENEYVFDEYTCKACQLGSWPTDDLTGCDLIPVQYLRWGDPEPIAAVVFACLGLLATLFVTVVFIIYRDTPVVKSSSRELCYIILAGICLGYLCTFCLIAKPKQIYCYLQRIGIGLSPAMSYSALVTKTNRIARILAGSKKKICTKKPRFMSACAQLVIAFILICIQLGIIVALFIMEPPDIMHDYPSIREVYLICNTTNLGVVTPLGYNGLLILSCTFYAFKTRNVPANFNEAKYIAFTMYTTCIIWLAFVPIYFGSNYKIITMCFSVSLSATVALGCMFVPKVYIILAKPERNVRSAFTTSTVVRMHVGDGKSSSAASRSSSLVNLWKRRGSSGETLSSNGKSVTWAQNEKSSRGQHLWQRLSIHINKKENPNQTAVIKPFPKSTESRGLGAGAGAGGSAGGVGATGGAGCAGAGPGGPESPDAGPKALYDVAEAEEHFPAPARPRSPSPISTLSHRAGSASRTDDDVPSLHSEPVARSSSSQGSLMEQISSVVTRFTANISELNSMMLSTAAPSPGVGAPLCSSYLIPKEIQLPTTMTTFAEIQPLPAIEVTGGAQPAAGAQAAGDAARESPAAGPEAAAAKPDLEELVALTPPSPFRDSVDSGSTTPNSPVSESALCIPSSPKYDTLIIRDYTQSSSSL

As usually defined, the IC50 is the midpoint of a concentration-inhibition curve. As to `O=C1CN=C(c2ccco2)C=C2c3cccc(-c4ccncc4)c3CCN12` [Example 28, 2-(furan-2-yl)-9-(pyridin-4-yl)-7,8-dihydro-[1,4]diazepino[7,1-a]isoquinolin-5(4H)-one], the IC50 stood at 4800 nM in assay [1] and 80 nM in assay [2].
In the case of `O=C1CN=C(c2cccs2)C=C2c3cccc(Br)c3CCN12` [Example 29, 9-bromo-2-(thiophen-2-yl)-7,8-dihydro-[1,4]diazepino[7,1-a]isoquinolin-5(4H)-one], the IC50 in assay [1] stood at 8 nM; in assay [2] it was 90 nM.
Consider `COc1cccc(C2=NCC(=O)N3CCc4c(I)cccc4C3=C2)c1` [Example 30, 9-iodo-2-(3-methoxyphenyl)-7,8-dihydro-[1,4]diazepino[7,1-a]isoquinolin-5(4H)-one], for which the IC50 in assay [1] came to 1400 nM; in assay [2], 150 nM.
In the case of `Cn1ccc(C2=NCC(=O)N3CCc4c(I)cccc4C3=C2)n1` [Example 31, 9-iodo-2-(1-methyl-1H-pyrazol-3-yl)-7,8-dihydro-[1,4]diazepino[7,1-a]isoquinolin-5(4H)-one], the results for the IC50 in assay [1] and in assay [2] were 1300 nM and 167 nM, respectively.
For the molecule `COc1cc(C2=NCC(=O)N3CCc4c(I)cccc4C3=C2)ccn1` [Example 33, 9-iodo-2-(2-methoxypyridin-4-yl)-7,8-dihydro-[1,4]diazepino[7,1-a]isoquinolin-5(4H)-one], the IC50 in assay [1] was found to be 1400 nM; in assay [2] it was 13 nM.
On to `O=C1CN=C(c2ccoc2)C=C2c3cccc(I)c3CCN12` [Example 34, 2-(furan-3-yl)-9-iodo-7,8-dihydro-[1,4]diazepino[7,1-a]isoquinolin-5(4H)-one], for which the IC50 was determined as 93 nM in assay [1] and 41 nM in assay [2].
Turning to `CC(C)n1cc(C2=NCC(=O)N3CCc4c(I)cccc4C3=C2)cn1` [Example 35, 9-iodo-2-(1-isopropyl-1H-pyrazol-4-yl)-7,8-dihydro-[1,4]diazepino[7,1-a]isoquinolin-5(4H)-one], the IC50 in assay [1] was 15 nM; in assay [2] it was 14 nM.
`Cn1cnc(C2=NCC(=O)N3CCc4c(I)cccc4C3=C2)c1` [Example 36, 9-iodo-2-(1-methyl-1H-imidazol-4-yl)-7,8-dihydro-[1,4]diazepino[7,1-a]isoquinolin-5(4H)-one]: the results for the IC50 in assay [1] and in assay [2] were 6900 nM and 3800 nM, respectively.
In general, inhibition refers to how much of the control response was suppressed. Turning to `COc1cccc2c1CCN1C(=O)CN=C(c3cnc4c(c3)OCCN4C)C=C21` [Example 36a, 9-methoxy-2-(4-methyl-3,4-dihydro-2H-pyrido[3,2-b][1,4]oxazin-7-yl)-7,8-dihydro-[1,4]diazepino[7,1-a]isoquinolin-5(4H)-one], in assay [1] (CHO), the inhibition at 10 µM is 1%. Further, the half-inhibitory concentration (IC50) in assay [2] is 5500 nM.
With `CCc1cccc2c1CCN1C(=O)CN=C(c3cccc(OC)c3)C=C21` [Example 37, 9-ethyl-2-(3-methoxyphenyl)-7,8-dihydro-[1,4]diazepino[7,1-a]isoquinolin-5(4H)-one], the IC50 in assay [1] was found to be 2200 nM; in assay [2] it was 77 nM.
As to `C#Cc1cccc2c1CCN1C(=O)CN=C(c3cccs3)C=C21` [Example 38, 9-ethynyl-2-(thiophen-2-yl)-7,8-dihydro-[1,4]diazepino[7,1-a]isoquinolin-5(4H)-one], the IC50 in assay [1] turned out to be 22 nM; in assay [2], 50 nM.
As for `N#Cc1cccc2c1CCN1C(=O)CN=C(c3cccs3)C=C21` [Example 39, 5-oxo-2-(thiophen-2-yl)-4,5,7,8-tetrahydro-[1,4]diazepino[7,1-a]isoquinoline-9-carbonitrile], the IC50 in assay [1] came out at 1600 nM; in assay [2], 610 nM.
For the molecule `Cn1ccc(C2=NCC(=O)N3CCc4c(C#N)cccc4C3=C2)n1` [Example 40, 2-(1-methyl-1H-pyrazol-3-yl)-5-oxo-4,5,7,8-tetrahydro-[1,4]diazepino[7,1-a]isoquinoline-9-carbonitrile], the IC50 in assay [1] was over 10000 nM; in assay [2] it was 5200 nM.
Regarding `COc1cccc(C2=NCC(=O)N3CCc4c(cccc4N4CCOCC4)C3=C2)c1` [Example 41, 2-(3-methoxyphenyl)-9-morpholino-7,8-dihydro-[1,4]diazepino[7,1-a]isoquinolin-5(4H)-one], the IC50 is over 10000 nM in assay [1] and 32 nM in assay [2].
Taken in the same sequence, the figures for `CC(C)n1cc(C2=NCC(=O)N3CCc4c(cccc4-n4cccn4)C3=C2)cn1` [Example 42, 2-(1-isopropyl-1H-pyrazol-4-yl)-9-(1H-pyrazol-1-yl)-7,8-dihydro-[1,4]diazepino[7,1-a]isoquinolin-5(4H)-one] were 3400 nM and 32 nM.
Taken in the same sequence, the figures for `COc1cccc(C2=NCC(=O)N3CCc4c(CN(C)C)cccc4C3=C2)c1` [Example 43, 9-((dimethylamino)methyl)-2-(3-methoxyphenyl)-7,8-dihydro-[1,4]diazepino[7,1-a]isoquinolin-5(4H)-one] were over 10000 nM and 685 nM.
Taken in the same sequence, the figures for `COCCOCc1cccc2c1CCN1C(=O)CN=C(c3cccc(OC)c3)C=C21` [Example 44, 9-((2-methoxyethoxy)methyl)-2-(3-methoxyphenyl)-7,8-dihydro-[1,4]diazepino[7,1-a]isoquinolin-5(4H)-one] were over 10000 nM and 1600 nM.
In the case of `Cn1ccc(C2=NCC(=O)N3CCc4c(CO)cccc4C3=C2)n1` [Example 45, 9-(hydroxymethyl)-2-(1-methyl-1H-pyrazol-3-yl)-7,8-dihydro-[1,4]diazepino[7,1-a]isoquinolin-5(4H)-one], the figures for the IC50 in assay [1] and in assay [2] were over 10000 nM and 700 nM, respectively.
For `Cn1cc(C2=NCC(=O)N3CCc4c(CO)cccc4C3=C2)cn1` [Example 46, 9-(hydroxymethyl)-2-(1-methyl-1H-pyrazol-4-yl)-7,8-dihydro-[1,4]diazepino[7,1-a]isoquinolin-5(4H)-one], the IC50 came to 2200 nM in assay [1] and 270 nM in assay [2].
Take `COC(C)c1cccc2c1CCN1C(=O)CN=C(c3ccn(C)n3)C=C21` (stereo not drawn) [Example 47, 9-(1-methoxyethyl)-2-(1-methyl-1H-pyrazol-3-yl)-7,8-dihydro-[1,4]diazepino[7,1-a]isoquinolin-5(4H)-one]: the IC50 in assay [1] came to 3400 nM; in assay [2], 71 nM.
Regarding `COc1cccc(C2=NCC(=O)N3CCc4c(C(C)=O)cccc4C3=C2)c1` [Example 48, 9-acetyl-2-(3-methoxyphenyl)-7,8-dihydro-[1,4]diazepino[7,1-a]isoquinolin-5(4H)-one], the IC50 in assay [1] came out at 2300 nM; in assay [2] it was 35 nM.
Turning to `COc1cccc(C2=NCC(=O)N3CCc4c(cccc4-c4ccccc4)C3=C2)c1` [Example 49, 2-(3-methoxyphenyl)-9-phenyl-7,8-dihydro-[1,4]diazepino[7,1-a]isoquinolin-5(4H)-one], the values for the IC50 in assay [1] and in assay [2] were over 10000 nM and 1300 nM, respectively.
The matching figures for `COc1cc(C2=NCC(=O)N3CCc4c(cccc4-c4ccccn4)C3=C2)ccn1` [Example 50, 2-(2-methoxypyridin-4-yl)-9-(pyridin-2-yl)-7,8-dihydro-[1,4]diazepino[7,1-a]isoquinolin-5(4H)-one]: over 10000 nM and 46 nM.
`O=C1CN=C(c2ccoc2)C=C2c3cccc(-c4ccncc4)c3CCN12` [Example 51, 2-(furan-3-yl)-9-(pyridin-4-yl)-7,8-dihydro-[1,4]diazepino[7,1-a]isoquinolin-5(4H)-one]: the IC50 in assay [1] is over 10000 nM; in assay [2], 35 nM.
